# How the values were obtained:
# Test in all cases: viability relative to DMSO control (fraction); higher = less drug effect (more viable cells)
# Settings in all cases: 48 h
# [1] = system: primary AML patient cells (S091)
# Outline: (§1)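 Viability was quantified by CellTiter-Glo luminescence and related to the median of 16 inner DMSO wells. Before that, primary mononuclear tumour cells, fresh or cryopreserved and Ficoll-isolated from blood or bone marrow or prepared from processed lymph node, were plated at 4 × 10^4 cells per well in 384-well plates containing pre-plated compounds at five concentrations, one well each. Plates were incubated in RPMI-1640 with penicillin/streptomycin, L-glutamine and human serum at 37 °C and 5% CO2 for 48 h.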
# [2] = system: primary AML patient cells (S011)
# Outline: as §1
# [3] = system: primary AML patient cells (S081)
# Outline: as §1
# [4] = system: primary T-PLL patient cells (S008)
# Outline: as §1
# [5] = system: primary AML patient cells (S037)
# Outline: as §1
# [6] = system: primary FL patient cells (S022)
# Outline: as §1
# [7] = system: primary AML patient cells (S027)
# Outline: as §1
# [8] = system: primary ALL patient cells (S048)
# Outline: as §1
# [9] = system: primary AML patient cells (S002)
# Outline: as §1
# [10] = system: primary AML patient cells (S025)
# Outline: as §1
# [11] = system: primary AML patient cells (S021)
# Outline: as §1
# [12] = system: primary MCL patient cells (S068)
# Outline: as §1
# [13] = system: primary AML patient cells (S019)
# Outline: as §1
# [14] = system: primary AML patient cells (S089)
# Outline: as §1
# [15] = system: primary AML patient cells (S007)
# Outline: as §1
smiles,measurement,setting,value
CCc1cnn2c(NCc3ccc[n+]([O-])c3)cc(N3CCCC[C@H]3CCO)nc12 [Dinaciclib],viability,[1]; 0.0016 µM,1.07
same,viability,[1]; 0.008 µM,0.171
same,viability,[1]; 0.04 µM,0.0777
same,viability,[1]; 0.2 µM,0.076
same,viability,[1]; 1 µM,0.0799
same,viability,[2]; 0.0016 µM,1.23
same,viability,[2]; 0.008 µM,0.155
same,viability,[2]; 0.04 µM,0.0402
same,viability,[2]; 0.2 µM,0.0329
same,viability,[2]; 1 µM,0.0263
same,viability,[3]; 0.0016 µM,1.02
same,viability,[3]; 0.008 µM,0.0549
same,viability,[3]; 0.04 µM,0.0232
same,viability,[3]; 0.2 µM,0.0223
same,viability,[3]; 1 µM,0.0211
same,viability,[4]; 0.0016 µM,0.971
same,viability,[4]; 0.008 µM,0.736
same,viability,[4]; 0.04 µM,0.127
same,viability,[4]; 0.2 µM,0.128
same,viability,[4]; 1 µM,0.143
same,viability,[5]; 0.0016 µM,1.04
same,viability,[5]; 0.008 µM,0.903
same,viability,[5]; 0.04 µM,0.39
same,viability,[5]; 0.2 µM,0.38
same,viability,[5]; 1 µM,0.374
same,viability,[6]; 0.0016 µM,1.01
same,viability,[6]; 0.008 µM,0.227
same,viability,[6]; 0.04 µM,0.195
same,viability,[6]; 0.2 µM,0.216
same,viability,[6]; 1 µM,0.269
same,viability,[7]; 0.0016 µM,1.05
same,viability,[7]; 0.008 µM,0.12
same,viability,[7]; 0.04 µM,0.0422
same,viability,[7]; 0.2 µM,0.0393
same,viability,[7]; 1 µM,0.0395
same,viability,[8]; 0.0016 µM,0.839
same,viability,[8]; 0.008 µM,0.127
same,viability,[8]; 0.04 µM,0.0333
same,viability,[8]; 0.2 µM,0.0246
same,viability,[8]; 1 µM,0.0268
same,viability,[9]; 0.0016 µM,1.17
same,viability,[9]; 0.008 µM,0.272
same,viability,[9]; 0.04 µM,0.277
same,viability,[9]; 0.2 µM,0.265
same,viability,[9]; 1 µM,0.274
same,viability,[10]; 0.0016 µM,0.976
same,viability,[10]; 0.008 µM,0.286
same,viability,[10]; 0.04 µM,0.063
same,viability,[10]; 0.2 µM,0.0602
same,viability,[10]; 1 µM,0.0589
same,viability,[11]; 0.0016 µM,1.38
same,viability,[11]; 0.008 µM,0.424
same,viability,[11]; 0.04 µM,0.161
same,viability,[11]; 0.2 µM,0.151
same,viability,[11]; 1 µM,0.139
same,viability,[12]; 0.0016 µM,0.678
same,viability,[12]; 0.008 µM,0.0624
same,viability,[12]; 0.04 µM,0.0361
same,viability,[12]; 0.2 µM,0.0363
same,viability,[12]; 1 µM,0.0424
same,viability,[13]; 0.0016 µM,1.31
same,viability,[13]; 0.008 µM,0.54
same,viability,[13]; 0.04 µM,0.114
same,viability,[13]; 0.2 µM,0.116
same,viability,[13]; 1 µM,0.126
same,viability,[14]; 0.0016 µM,0.929
same,viability,[14]; 0.008 µM,0.0524
same,viability,[14]; 0.04 µM,0.0434
same,viability,[14]; 0.2 µM,0.0447
same,viability,[14]; 1 µM,0.0498
same,viability,[15]; 0.0016 µM,0.637
same,viability,[15]; 0.008 µM,0.175
same,viability,[15]; 0.04 µM,0.118
same,viability,[15]; 0.2 µM,0.12
same,viability,[15]; 1 µM,0.141
CN1CC[C@H](c2c(O)cc(O)c3c(=O)cc(-c4ccccc4Cl)oc23)[C@H](O)C1 [Flavopiridol],viability,[1]; 0.0032 µM,0.917
same,viability,[1]; 0.016 µM,0.921
same,viability,[1]; 0.08 µM,0.604
same,viability,[1]; 0.4 µM,0.113
same,viability,[1]; 2 µM,0.0958
same,viability,[2]; 0.0032 µM,0.859
same,viability,[2]; 0.016 µM,0.754
same,viability,[2]; 0.08 µM,0.715
same,viability,[2]; 0.4 µM,0.0633
same,viability,[2]; 2 µM,0.0225
same,viability,[3]; 0.0032 µM,1.01
same,viability,[3]; 0.016 µM,0.873
same,viability,[3]; 0.08 µM,0.766
same,viability,[3]; 0.4 µM,0.0954
same,viability,[3]; 2 µM,0.0215
same,viability,[4]; 0.0032 µM,0.953
same,viability,[4]; 0.016 µM,1.03
same,viability,[4]; 0.08 µM,0.916
same,viability,[4]; 0.4 µM,0.804
same,viability,[4]; 2 µM,0.0718
same,viability,[5]; 0.0032 µM,0.979
same,viability,[5]; 0.016 µM,0.948
same,viability,[5]; 0.08 µM,0.914
same,viability,[5]; 0.4 µM,0.633
same,viability,[5]; 2 µM,0.328
same,viability,[6]; 0.0032 µM,1.04
same,viability,[6]; 0.016 µM,0.958
same,viability,[6]; 0.08 µM,0.995
same,viability,[6]; 0.4 µM,0.227
same,viability,[6]; 2 µM,0.187
same,viability,[7]; 0.0032 µM,1.04
same,viability,[7]; 0.016 µM,0.947
same,viability,[7]; 0.08 µM,0.842
same,viability,[7]; 0.4 µM,0.0906
same,viability,[7]; 2 µM,0.0365
same,viability,[8]; 0.0032 µM,0.998
same,viability,[8]; 0.016 µM,1
same,viability,[8]; 0.08 µM,1.1
same,viability,[8]; 0.4 µM,0.535
same,viability,[8]; 2 µM,0.0207
same,viability,[9]; 0.0032 µM,1.02
same,viability,[9]; 0.016 µM,0.927
same,viability,[9]; 0.08 µM,0.69
same,viability,[9]; 0.4 µM,0.241
same,viability,[9]; 2 µM,0.244
same,viability,[10]; 0.0032 µM,0.958
same,viability,[10]; 0.016 µM,0.861
same,viability,[10]; 0.08 µM,0.691
same,viability,[10]; 0.4 µM,0.13
same,viability,[10]; 2 µM,0.0473
same,viability,[11]; 0.0032 µM,0.974
same,viability,[11]; 0.016 µM,0.852
same,viability,[11]; 0.08 µM,0.676
same,viability,[11]; 0.4 µM,0.292
same,viability,[11]; 2 µM,0.124
same,viability,[12]; 0.0032 µM,0.98
same,viability,[12]; 0.016 µM,0.982
same,viability,[12]; 0.08 µM,0.82
same,viability,[12]; 0.4 µM,0.0704
same,viability,[12]; 2 µM,0.0301
same,viability,[13]; 0.0032 µM,1.08
same,viability,[13]; 0.016 µM,0.769
same,viability,[13]; 0.08 µM,0.961
same,viability,[13]; 0.4 µM,0.198
same,viability,[13]; 2 µM,0.0784
same,viability,[14]; 0.0032 µM,0.742
same,viability,[14]; 0.016 µM,1.01
same,viability,[14]; 0.08 µM,0.362
same,viability,[14]; 0.4 µM,0.0371
same,viability,[14]; 2 µM,0.0437
same,viability,[15]; 0.0032 µM,0.945
same,viability,[15]; 0.016 µM,0.68
same,viability,[15]; 0.08 µM,0.624
same,viability,[15]; 0.4 µM,0.127
same,viability,[15]; 2 µM,0.0782

# From the supplement of paper PMC10733146
